The target of the test is Endothelial PAS domain-containing protein 1 (Homo sapiens, UniProt Q99814). Briefly: Scintillation Proximal Assay (SPA). The method, then:
Compounds (tested using a 14-point dose response with 3-fold compound dilutions from 100 μM to 60 pM) were pre-incubated for 30 min with HIF2α PAS-B domain (236-350, biotinylated on the N-terminus), before addition of the radio-ligand. […] Duplicates were made using 2 different plates, and mean IC50 values were determined using the Helios system based on the following equation: % inhibition=[(high control−sample)/(high control−low control)]×100. The IC50 values in the Tabulated HIF2α activities are the average from 1 to 10 independent experiments.

SMILES strings stand for the structures.

Endothelial PAS domain-containing protein 1, sequence (Q99814 whole entry, the tested form may be a part): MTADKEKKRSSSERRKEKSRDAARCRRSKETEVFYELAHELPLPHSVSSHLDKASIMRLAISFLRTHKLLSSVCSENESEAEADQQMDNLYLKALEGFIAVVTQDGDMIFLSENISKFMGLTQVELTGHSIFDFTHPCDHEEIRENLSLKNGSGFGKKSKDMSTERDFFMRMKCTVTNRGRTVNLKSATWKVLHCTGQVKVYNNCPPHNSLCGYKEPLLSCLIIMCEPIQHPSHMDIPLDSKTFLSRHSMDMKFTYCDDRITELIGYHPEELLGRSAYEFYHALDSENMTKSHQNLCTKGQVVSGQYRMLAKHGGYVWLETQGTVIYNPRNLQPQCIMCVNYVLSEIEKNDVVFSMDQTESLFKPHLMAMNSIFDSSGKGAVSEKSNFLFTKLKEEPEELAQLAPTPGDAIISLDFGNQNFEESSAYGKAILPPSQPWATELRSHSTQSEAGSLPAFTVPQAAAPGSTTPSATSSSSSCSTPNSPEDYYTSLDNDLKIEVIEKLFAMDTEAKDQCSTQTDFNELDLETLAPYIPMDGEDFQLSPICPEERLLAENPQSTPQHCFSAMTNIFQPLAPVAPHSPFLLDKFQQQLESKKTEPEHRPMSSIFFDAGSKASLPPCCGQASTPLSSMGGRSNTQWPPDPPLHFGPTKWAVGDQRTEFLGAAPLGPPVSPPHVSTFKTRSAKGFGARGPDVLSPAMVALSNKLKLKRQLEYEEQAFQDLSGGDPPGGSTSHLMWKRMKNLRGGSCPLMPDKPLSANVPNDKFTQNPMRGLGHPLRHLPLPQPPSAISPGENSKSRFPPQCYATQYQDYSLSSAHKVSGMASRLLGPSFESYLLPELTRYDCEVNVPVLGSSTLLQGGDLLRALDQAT

By IC50 is commonly meant the midpoint of a concentration-inhibition curve. Lower therefore signals inhibition by little substance. `FC(F)OC1=CC(C(F)(F)F)=CN2C[C@@]3(CCc4cc(C(F)(F)F)ccc43)N=C12` [US12226405, Example 6] had an IC50 of 8 nM.

The values are drawn from BindingDB's records for patent US12226405 (Novartis, 2025).
